One experiment concerns the target T1, EGFR (L858R T790M C797S) (Homo sapiens, UniProt P00533, C797S/L858R/T790M).
T1 construct: purchased SignalChem E10-122VG
The experiment is described as follows: Biochemical EGFR inhibition assay (Caliper mobility shift), EGFR LRTMCS. Conditions: LRTMCS (PH) IC50 (nM) @ 1 mM ATP (Num), EGFR LRTMCS mutant. The procedure, abridged:
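Kinase reactions proceed at 25° C. to 10%–20% conversion of total peptide, are terminated with 35 mM EDTA, and the phosphopeptide is resolved from substrate by electrophoretic mobility shift. Apparent IC50 values come from plotting percent activity against log compound concentration.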

Experiment [1] deals with T2, intracellular phosphorylation of EGFR in NCI-H1975 cell line that harbors the EGFR L858R T790M mutations (Homo sapiens, UniProt P00533, L858R/T790M).
T2 construct: NCI-H1975 cell line that harbors the EGFR L858R T790M mutations (ATCC, CRL-5908); host or cells: NCI-H1975
T2 sequence (P00533 25-1210 T790M/L858R): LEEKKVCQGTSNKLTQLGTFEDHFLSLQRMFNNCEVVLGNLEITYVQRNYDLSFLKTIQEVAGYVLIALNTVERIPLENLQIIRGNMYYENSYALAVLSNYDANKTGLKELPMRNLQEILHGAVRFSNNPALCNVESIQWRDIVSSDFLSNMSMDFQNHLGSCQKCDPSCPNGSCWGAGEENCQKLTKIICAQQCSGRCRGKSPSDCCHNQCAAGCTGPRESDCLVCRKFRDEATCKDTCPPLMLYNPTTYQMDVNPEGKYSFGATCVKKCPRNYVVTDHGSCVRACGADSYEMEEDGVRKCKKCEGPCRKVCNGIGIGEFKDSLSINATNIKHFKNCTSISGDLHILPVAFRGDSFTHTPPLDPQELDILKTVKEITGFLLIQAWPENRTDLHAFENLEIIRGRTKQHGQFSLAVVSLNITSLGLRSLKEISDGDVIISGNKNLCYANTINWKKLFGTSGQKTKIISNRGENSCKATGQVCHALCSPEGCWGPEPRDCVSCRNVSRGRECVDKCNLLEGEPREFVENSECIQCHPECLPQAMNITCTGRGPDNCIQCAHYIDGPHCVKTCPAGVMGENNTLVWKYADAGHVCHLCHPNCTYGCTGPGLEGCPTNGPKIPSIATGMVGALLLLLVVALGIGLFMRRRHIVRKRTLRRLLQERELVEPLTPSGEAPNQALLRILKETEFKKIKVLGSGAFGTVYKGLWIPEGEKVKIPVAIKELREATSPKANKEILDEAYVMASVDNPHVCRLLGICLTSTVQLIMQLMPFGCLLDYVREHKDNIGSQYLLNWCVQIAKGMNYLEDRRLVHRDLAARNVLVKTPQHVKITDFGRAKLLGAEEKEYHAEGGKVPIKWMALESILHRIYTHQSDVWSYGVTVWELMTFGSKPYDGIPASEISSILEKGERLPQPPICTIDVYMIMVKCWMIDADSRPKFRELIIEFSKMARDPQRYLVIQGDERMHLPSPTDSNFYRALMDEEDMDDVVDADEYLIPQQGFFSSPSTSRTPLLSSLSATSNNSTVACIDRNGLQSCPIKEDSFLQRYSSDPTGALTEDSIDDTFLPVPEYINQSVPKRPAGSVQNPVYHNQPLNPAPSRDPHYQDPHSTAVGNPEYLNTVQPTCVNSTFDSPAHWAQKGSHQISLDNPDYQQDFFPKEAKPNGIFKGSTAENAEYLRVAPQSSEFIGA
The experiment is described as follows: NCI-H1975 pEGFR AlphaLISA assay. The experiment is classed as cell-based. The following applies: NCI-H1975 cells (EGFR L858R T790M), p-EGFR (Tyr1068), 4-5 hours incubation; read-out: Ext pEGFR H1975 GMean IC50 (nM) Protocol: @Pharmaron AlphaLISA (Num). As to the method: On the next day, the test compounds and DMSO control were added into H1975 cell plate followed by incubation at 37C/5% CO2 for 4-5 hours. […] Then 5 μL of a donor bead mix was added to each well followed by overnight incubation at room temperature in dark. On the next day, the plate was read at a compatible plate reader to obtain pEGFR signal. Percent of pEGFR inhibition was plotted against log concentration of compounds to generate IC50 values.
(In Alpha technology, singlet oxygen from a donor bead excites a nearby acceptor bead.)

Some results are limits rather than exact numbers.

T1 sequence (P00533 25-1210 T790M/C797S/L858R): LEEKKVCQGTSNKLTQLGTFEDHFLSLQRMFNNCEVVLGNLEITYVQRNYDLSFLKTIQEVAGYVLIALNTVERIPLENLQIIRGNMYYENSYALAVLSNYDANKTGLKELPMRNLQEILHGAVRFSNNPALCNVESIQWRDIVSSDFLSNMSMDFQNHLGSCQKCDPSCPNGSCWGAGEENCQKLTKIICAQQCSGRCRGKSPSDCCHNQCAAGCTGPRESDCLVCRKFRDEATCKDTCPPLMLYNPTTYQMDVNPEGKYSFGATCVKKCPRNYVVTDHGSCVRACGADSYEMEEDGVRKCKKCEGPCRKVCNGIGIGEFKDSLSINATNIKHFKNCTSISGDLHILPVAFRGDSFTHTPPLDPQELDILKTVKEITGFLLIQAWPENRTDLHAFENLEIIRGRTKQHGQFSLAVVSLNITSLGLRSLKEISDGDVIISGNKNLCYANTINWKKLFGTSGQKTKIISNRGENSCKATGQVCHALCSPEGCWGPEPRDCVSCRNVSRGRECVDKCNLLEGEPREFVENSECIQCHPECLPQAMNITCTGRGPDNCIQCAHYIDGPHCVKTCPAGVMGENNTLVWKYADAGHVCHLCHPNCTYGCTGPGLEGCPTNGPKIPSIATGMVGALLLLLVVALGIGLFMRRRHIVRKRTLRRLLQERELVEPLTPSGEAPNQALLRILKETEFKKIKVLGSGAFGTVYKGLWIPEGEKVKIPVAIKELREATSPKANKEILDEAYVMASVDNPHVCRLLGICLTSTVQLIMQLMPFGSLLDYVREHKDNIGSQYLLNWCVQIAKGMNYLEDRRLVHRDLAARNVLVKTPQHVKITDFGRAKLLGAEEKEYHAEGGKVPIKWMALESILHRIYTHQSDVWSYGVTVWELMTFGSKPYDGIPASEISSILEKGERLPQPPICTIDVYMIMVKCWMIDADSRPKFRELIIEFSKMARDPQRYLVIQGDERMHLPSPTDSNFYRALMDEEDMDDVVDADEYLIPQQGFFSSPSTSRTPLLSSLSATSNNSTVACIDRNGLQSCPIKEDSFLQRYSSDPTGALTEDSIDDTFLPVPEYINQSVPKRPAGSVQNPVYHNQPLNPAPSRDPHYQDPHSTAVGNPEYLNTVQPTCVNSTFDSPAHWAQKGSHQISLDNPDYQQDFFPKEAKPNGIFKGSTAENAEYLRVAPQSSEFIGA

In the case of `CC(C)c1cnc(N2CC(O)C2)c2cnc(Nc3ccnc(N4CC[C@@H](O)[C@@](C)(F)C4)n3)cc12` [Example 62, (3S,4R)-3-fluoro-1-(4-((8-(3-hydroxyazetidin-1-yl)-5-isopropyl-2,7-naphthyridin-3-yl)amino)pyrimidin-2-yl)-3-methylpiperidin-4-ol], the half-maximal inhibitory concentration (IC50) on EGFR (L858R T790M C797S) is under 15 nM; in experiment [1], 30 to 50 nM.

For `CC(C)c1cnc(N2CCC3(C2)CC3(F)F)c2cnc(Nc3ccnc(N4CC[C@@H](O)[C@@](C)(F)C4)n3)cc12` (stereo partly drawn) [Example 63, (3S,4R)-1-(4-((8-(1,1-difluoro-5-azaspiro[2.4]heptan-5-yl)-5-isopropyl-2,7-naphthyridin-3-yl)amino)pyrimidin-2-yl)-3-fluoro-3-methylpiperidin-4-ol], the IC50 on EGFR (L858R T790M C797S) fell in the range of 15 to 20 nM; in experiment [1], 20 to 30 nM.

For the compound `COCCN1CC2(CCN2c2ncc(C(C)C)c3cc(Nc4ccnc(N5CC[C@@H](O)[C@@](C)(F)C5)n4)ncc23)C1` [Example 64, (3S,4R)-3-fluoro-1-(4-((5-isopropyl-8-(6-(2-methoxyethyl)-1,6-diazaspiro[3.3]heptan-1-yl)-2,7-naphthyridin-3-yl)amino)pyrimidin-2-yl)-3-methylpiperidin-4-ol], the values for the IC50 (at EGFR (L858R T790M C797S); in experiment [1]) were under 15 nM and 30 to 50 nM, respectively.

On to `COCC1CN(c2ncc(C(C)C)c3cc(Nc4ccnc(N5CC[C@@H](O)[C@@](C)(F)C5)n4)ncc23)C1` [Example 66, (3S,4R)-3-fluoro-1-(4-((5-isopropyl-8-(3-(methoxymethyl)azetidin-1-yl)-2,7-naphthyridin-3-yl)amino)pyrimidin-2-yl)-3-methylpiperidin-4-ol], for which the IC50 at EGFR (L858R T790M C797S) is 20 to 30 nM; in experiment [1] it was 30 to 50 nM.

Turning to `CC(C)c1cnc(N2CC(F)(CO)C2)c2cnc(Nc3ccnc(N4CC[C@@H](O)[C@@](C)(F)C4)n3)cc12` [Example 67, (3S,4R)-3-fluoro-1-(4-((8-(3-fluoro-3-(hydroxymethyl)azetidin-1-yl)-5-isopropyl-2,7-naphthyridin-3-yl)amino)pyrimidin-2-yl)-3-methylpiperidin-4-ol], the half-inhibitory concentration (IC50) at EGFR (L858R T790M C797S) is 15 to 20 nM; in experiment [1], over 50 nM.

On to `COCC1(F)CN(c2ncc(C(C)C)c3cc(Nc4ccnc(N5CC[C@@H](O)[C@@](C)(F)C5)n4)ncc23)C1` [Example 68, (3S,4R)-3-fluoro-1-(4-((8-(3-fluoro-3-(methoxymethyl)azetidin-1-yl)-5-isopropyl-2,7-naphthyridin-3-yl)amino)pyrimidin-2-yl)-3-methylpiperidin-4-ol], for which the IC50 on EGFR (L858R T790M C797S) lay within 20 to 30 nM; in experiment [1], 30 to 50 nM.

For the compound `CC(C)c1cnc(N2CC(S(C)(=O)=O)C2)c2cnc(Nc3ccnc(N4CC[C@@H](O)[C@@](C)(F)C4)n3)cc12` [Example 69, (3S,4R)-3-fluoro-1-(4-((5-isopropyl-8-(3-(methylsulfonyl)azetidin-1-yl)-2,7-naphthyridin-3-yl)amino)pyrimidin-2-yl)-3-methylpiperidin-4-ol], the concentration for half-maximal inhibition (IC50) at EGFR (L858R T790M C797S) was under 15 nM; in experiment [1], 30 to 50 nM.

For `CC(=O)NCC1CCN1c1ncc(C(C)C)c2cc(Nc3ccnc(N4CC[C@@H](O)[C@@](C)(F)C4)n3)ncc12` (stereo partly drawn) [Example 70, N-((1-(6-((2-((3S,4R)-3-fluoro-4-hydroxy-3-methylpiperidin-1-yl)pyrimidin-4-yl)amino)-4-isopropyl-2,7-naphthyridin-1-yl)azetidin-2-yl)methyl)acetamide], the values for the concentration for half-maximal inhibition (IC50) (on EGFR (L858R T790M C797S); in experiment [1]) were 15 to 20 nM and over 50 nM, respectively.

On to `CC(C)c1cnc(N2CC3(CN(C)C(=O)O3)C2)c2cnc(Nc3ccnc(N4CC[C@@H](O)[C@@](C)(F)C4)n3)cc12` [Example 71, 2-(6-((2-((3S,4R)-3-fluoro-4-hydroxy-3-methylpiperidin-1-yl)pyrimidin-4-yl)amino)-4-isopropyl-2,7-naphthyridin-1-yl)-7-methyl-5-oxa-2,7-diazaspiro[3.4]octan-6-one], for which the IC50 at EGFR (L858R T790M C797S) lay in the range of 20 to 30 nM; in experiment [1] it was 30 to 50 nM.

With `CC(C)c1cnc(N2CC(O)(CC#N)C2)c2cnc(Nc3ccnc(N4CC[C@@H](O)[C@@](C)(F)C4)n3)cc12` [Example 72, 2-(1-(6-((2-((3S,4R)-3-fluoro-4-hydroxy-3-methylpiperidin-1-yl)pyrimidin-4-yl)amino)-4-isopropyl-2,7-naphthyridin-1-yl)-3-hydroxyazetidin-3-yl)acetonitrile], the IC50 on EGFR (L858R T790M C797S) is 15 to 20 nM; in experiment [1], over 50 nM.

`CC(C)c1cnc(N2CC(C#N)(CO)C2)c2cnc(Nc3ccnc(N4CC[C@@H](O)[C@@](C)(F)C4)n3)cc12` [Example 73, 1-(6-((2-((3S,4R)-3-fluoro-4-hydroxy-3-methylpiperidin-1-yl)pyrimidin-4-yl)amino)-4-isopropyl-2,7-naphthyridin-1-yl)-3-(hydroxymethyl)azetidine-3-carbonitrile]: the IC50 was 30 to 100 nM on EGFR (L858R T790M C797S) and over 50 nM in experiment [1].

With `CC(C)c1cnc(N2CC[C@@H](S(C)(=O)=O)C2)c2cnc(Nc3ccnc(N4CC[C@@H](O)[C@@](C)(F)C4)n3)cc12` [Example 74, (3S,4R)-3-fluoro-1-(4-((5-isopropyl-8-((R)-3-(methylsulfonyl)pyrrolidin-1-yl)-2,7-naphthyridin-3-yl)amino)pyrimidin-2-yl)-3-methylpiperidin-4-ol], the IC50 was under 15 nM on EGFR (L858R T790M C797S) and under 10 nM in experiment [1].

In the case of `CC(C)c1cnc(N2CC[C@H](S(C)(=O)=O)C2)c2cnc(Nc3ccnc(N4CC[C@@H](O)[C@@](C)(F)C4)n3)cc12` [Example 75, (3S,4R)-3-fluoro-1-(4-((5-isopropyl-8-((S)-3-(methylsulfonyl)pyrrolidin-1-yl)-2,7-naphthyridin-3-yl)amino)pyrimidin-2-yl)-3-methylpiperidin-4-ol], the concentration for half-maximal inhibition (IC50) at EGFR (L858R T790M C797S) is 15 to 20 nM; in experiment [1], 10 to 20 nM.

For the compound `CC(C)c1cnc(N2CC[C@H]2CF)c2cnc(Nc3ccnc(N4CC[C@@H](O)[C@@](C)(F)C4)n3)cc12` [Example 76, (3S,4R)-3-fluoro-1-(4-((8-((S)-2-(fluoromethyl)azetidin-1-yl)-5-isopropyl-2,7-naphthyridin-3-yl)amino)pyrimidin-2-yl)-3-methylpiperidin-4-ol], the IC50 on EGFR (L858R T790M C797S) is under 15 nM; in experiment [1] it was 10 to 20 nM.

With `CC(C)c1cnc(N2CC(CCO)C2)c2cnc(Nc3ccnc(N4CC[C@@H](O)[C@@](C)(F)C4)n3)cc12` [Example 77, (3S,4R)-3-fluoro-1-(4-((8-(3-(2-hydroxyethyl)azetidin-1-yl)-5-isopropyl-2,7-naphthyridin-3-yl)amino)pyrimidin-2-yl)-3-methylpiperidin-4-ol], the IC50 lay in the range of 15 to 20 nM at EGFR (L858R T790M C797S) and 20 to 30 nM in experiment [1].

Regarding `CC(C)c1cnc(N2C[C@](C)(O)[C@H]2C)c2cnc(Nc3ccnc(N4CC[C@@H](O)[C@@](C)(F)C4)n3)cc12` [Example 78, (3S,4R)-3-fluoro-1-(4-((8-((2R,3S)-3-hydroxy-2,3-dimethylazetidin-1-yl)-5-isopropyl-2,7-naphthyridin-3-yl)amino)pyrimidin-2-yl)-3-methylpiperidin-4-ol], the half-inhibitory concentration (IC50) on EGFR (L858R T790M C797S) is 15 to 20 nM; in experiment [1], 20 to 30 nM.

For `CC(C)c1cnc(N2CC(CP(C)(C)=O)C2)c2cnc(Nc3ccnc(N4CC[C@@H](O)[C@@](C)(F)C4)n3)cc12` [Example 79, ((1-(6-((2-((3S,4R)-3-fluoro-4-hydroxy-3-methylpiperidin-1-yl)pyrimidin-4-yl)amino)-4-isopropyl-2,7-naphthyridin-1-yl)azetidin-3-yl)methyl)dimethylphosphine oxide], the IC50 on EGFR (L858R T790M C797S) is 30 to 100 nM; in experiment [1], over 50 nM.

For the compound `CNC(=O)C1CN(c2ncc(C(C)C)c3cc(Nc4ccnc(N5CC[C@@H](O)[C@@](C)(F)C5)n4)ncc23)C1` [Example 80, 1-(6-((2-((3S,4R)-3-fluoro-4-hydroxy-3-methylpiperidin-1-yl)pyrimidin-4-yl)amino)-4-isopropyl-2,7-naphthyridin-1-yl)-N-methylazetidine-3-carboxamide], the IC50 on EGFR (L858R T790M C797S) was under 15 nM; in experiment [1], 30 to 50 nM.

For the compound `CC(C)c1cnc(N2CC[C@H](O)[C@H]2C)c2cnc(Nc3ccnc(N4CC[C@@H](O)[C@@](C)(F)C4)n3)cc12` [Example 81, (3S,4R)-3-fluoro-1-(4-((8-((2R,3S)-3-hydroxy-2-methylpyrrolidin-1-yl)-5-isopropyl-2,7-naphthyridin-3-yl)amino)pyrimidin-2-yl)-3-methylpiperidin-4-ol], the concentration for half-maximal inhibition (IC50) was 15 to 20 nM on EGFR (L858R T790M C797S) and over 50 nM in experiment [1].

As to `COC(=O)N1CC2(CCN2c2ncc(C(C)C)c3cc(Nc4ccnc(N5CC[C@@H](O)[C@@](C)(F)C5)n4)ncc23)C1` [Example 82, methyl 1-(6-((2-((3S,4R)-3-fluoro-4-hydroxy-3-methylpiperidin-1-yl)pyrimidin-4-yl)amino)-4-isopropyl-2,7-naphthyridin-1-yl)-1,6-diazaspiro[3.3]heptane-6-carboxylate], the 50% inhibitory concentration (IC50) lay in the range of 15 to 20 nM on EGFR (L858R T790M C797S) and 30 to 50 nM in experiment [1].

In the case of `CC(C)c1cnc(N2CC(CNS(C)(=O)=O)C2)c2cnc(Nc3ccnc(N4CC[C@@H](O)[C@@](C)(F)C4)n3)cc12` [Example 83, N-((1-(6-((2-((3S,4R)-3-fluoro-4-hydroxy-3-methylpiperidin-1-yl)pyrimidin-4-yl)amino)-4-isopropyl-2,7-naphthyridin-1-yl)azetidin-3-yl)methyl)methanesulfonamide], the values for the concentration for half-maximal inhibition (IC50) (on EGFR (L858R T790M C797S); in experiment [1]) were under 15 nM and 20 to 30 nM, respectively.

The IC50 is the point on the concentration scale where inhibition reaches its midpoint.
